Data on 41 compounds can be found in patent US11633379B2, “Methods of inhibiting PCSK9” (TRUSTEES OF DARTMOUTH COLLEGE, priority 2017, dated 2023).

Several values for one entry are separate records, joined by “and”; a condition that tells them apart may be missing. Equal values may be shown once.

Assay [1] deals with PCSK9. The experiment in a line: Basal_PCSK9 HepG2, primary SP and CRC (secreted PCSK9, ELISA). Particulars: for Primary SP Basal_PCSK9 HepG2 SP % Inhib @ 2 μM / Primary SP Basal_PCSK9 HepG2 SP % Inhib @ 5 μM / Primary SP Basal_PCSK9 HepG2 SP % Inhib @ 50 μM: HepG2, single point; for IC50: HepG2, concentration response curve; for Primary SP Basal_PCSK9 HepG2 SP % Inhib @ 5 μM / accumulation of PCSK9 in culture media: 5 μM; for accumulation of PCSK9 in culture media: HepG2 cells, FIGS. 2A-2B; for activity rating in words (PCSK9 inhibition, Table 2): summary of Table 2 data. The assay is classed as cell-based, human. On the procedure:
To study the effect of the compounds on PCSK9 secretion we used 1×10^6 HepG2 cells in 6-well culture plates, followed by incubation with media only, media+0.1% DMSO or Media+5 uM of 31/33/34/35 in 0.1% DMSO and collection of 50 ul of media at 8, 16, 24 and 40 hours or incubation with increasing concentration (0.2-50 μM) of 34 in 0.1% DMSO for 24 hours and collection of 50 ul of media. The collected media was analyzed for PCSK9 levels using commercially available ELISA kit (MBL-international, catalog # CY-8079) following the manufacturer instruction.
(§1) The below data (Table 2) was generated using the assays as discussed in Examples 1-2. Blanks mean no testing was performed. […] For the SP assays, the higher the number, the higher the inhibition, e.g., the better the activity of the compound. Compounds with a determined IC50 are particularly active, the IC50 values were determined via dose response curve (under the heading CRC which stands for concentration response curve aka dose response curve).

For assay [2], the system named is PCSK9. The experiment in a line: PCSK9 AlphaLisa Huh7 SP and CRC. It counts as cell-based. For orientation: In Alpha technology, singlet oxygen from a donor bead excites a nearby acceptor bead.
In assay [3] the test system is PCSK9. The experiment in a line: Secondary Basal_PCSK9 ELISA RPH. It counts as cell-based. Here is the method:
as §1

For `Cn1c2c(c3ccccc31)C(c1ccccc1)C1C=CC2C1` (centres unmarked) [Compound 1], the “Primary SP Basal_PCSK9 HepG2 SP % Inhib @ 2 μM” value in the assay on PCSK9 [1] worked out at 0%. As to `COc1ccc(C2c3c(n(C)c4ccccc34)C3C=CC2C3)cc1` (centres unmarked) [Compound 2], the “Primary SP Basal_PCSK9 HepG2 SP % Inhib @ 5 μM” value with PCSK9 [1] is recorded as 39.51%. As to `Cn1c2c(c3ccccc31)C(c1ccc(C(F)(F)F)cc1)C1C=CC2C1` (centres unmarked) [Compound 3], in the assay on PCSK9 [1], the “Primary SP Basal_PCSK9 HepG2 SP % Inhib @ 5 μM” value is −0.4577%. In the case of `Cn1c2c(c3ccccc31)C(c1ccco1)C1C=CC2C1` (centres unmarked) [Compound 4], in the assay with PCSK9 [1], the “Primary SP Basal_PCSK9 HepG2 SP % Inhib @ 5 μM” value came to 11.69%. Consider `Cn1c2c(c3ccccc31)C(c1cccs1)C1C=CC2C1` (centres unmarked) [Compound 5], for which the “Primary SP Basal_PCSK9 HepG2 SP % Inhib @ 5 μM” value in the assay on PCSK9 [1] was 30.55%.

As to `CCC1c2c(n(C)c3ccccc23)C2C=CC1C2` (centres unmarked) [Compound 6], in the assay on PCSK9 [1], the “Primary SP Basal_PCSK9 HepG2 SP % Inhib @ 5 μM” value is reported as −5.193%.

On to `Cn1c2c(c3ccccc31)C1(CCCC1)C1C=CC2C1` (centres unmarked) [Compound 7], for which the “Primary SP PCSK9 AlphaLisa Huh7 SP % Inhib @ 10 μM” value in the assay on PCSK9 [2] (Huh7) is reported as −34.71%.

In the case of `Cn1c2c(c3ccccc31)C1(CCCCC1)C1C=CC2C1` (centres unmarked) [Compound 8], the “Primary SP PCSK9 AlphaLisa Huh7 SP % Inhib @ 10 μM” value in the assay on PCSK9 [2] (Huh7) is −44.02%. As to `Cn1c2c(c3ccccc31)C1(CCCCC1)C1C=CC2C1` (centres unmarked) [Compound 9], the “Primary SP Basal_PCSK9 HepG2 SP % Inhib @ 5 μM” value in the assay with PCSK9 [1] turned out to be 21.92%. `CC1=C(C)CC2(CCCCC2)c2c(n(C)c3ccccc23)C1` [Compound 10]: the “Primary SP Basal_PCSK9 HepG2 SP % Inhib @ 5 μM” value with PCSK9 [1] is on record as 11.61%. On to `CC1=CCc2c(c3ccccc3n2C)C(c2ccccc2)C1` (centres unmarked) [Compound 11], for which the “Primary SP Basal_PCSK9 HepG2 SP % Inhib @ 5 μM” value in the assay on PCSK9 [1] is listed as 38.95%.

For `CC1C=CC(C)C(c2ccccc2)c2c1n(C)c1ccccc21` (centres unmarked) [Compound 12], the “Primary SP PCSK9 AlphaLisa Huh7 SP % Inhib @ 10 μM” value in the assay with PCSK9 [2] (Huh7) is recorded as −261.1%. For the compound `CC1(C)c2c(n(Cc3ccccc3)c3ccccc23)C2C=CC1C2` (centres unmarked) [Compound 13], in the assay with PCSK9 [1], the “Primary SP Basal_PCSK9 HepG2 SP % Inhib @ 5 μM” value turned out to be 18.09%. Regarding `CC1(C)c2c([nH]c3ccccc23)C2C=CC1C2` (centres unmarked) [Compound 14], in the assay on PCSK9 [1], the “Primary SP Basal_PCSK9 HepG2 SP % Inhib @ 2 μM” value was 47.9% and the IC50 was > 50 µM. As to `COC(=O)c1ccc2[nH]c3c(c2c1)C(C)(C)C1C=CC3C1` (centres unmarked) [Compound 15], the “Primary SP PCSK9 AlphaLisa Huh7 SP % Inhib @ 10 μM” value in the assay with PCSK9 [2] (Huh7) is recorded as −117.8%. For the compound `CC1(C)c2c([nH]c3ccc(I)cc23)C2C=CC1C2` (centres unmarked) [Compound 16], the “Primary SP Basal_PCSK9 HepG2 SP % Inhib @ 5 μM” value in the assay with PCSK9 [1] came to 9.989%.

Consider `CC1(C)c2c([nH]c3ccc(Br)cc23)C2C=CC1C2` (centres unmarked) [Compound 17], for which, in the assay on PCSK9 [1], the “Primary SP Basal_PCSK9 HepG2 SP % Inhib @ 5 μM” value is 37.33%.

`CC1(C)c2c([nH]c3ccc(Cl)cc23)C2C=CC1C2` (centres unmarked) [Compound 18]: in the assay on PCSK9 [1], the “Primary SP Basal_PCSK9 HepG2 SP % Inhib @ 5 μM” value was determined as 21.64%. On the same count and under the same terms, the result for `Cn1c2c(c3ccccc31)C1(CCCCC1)CC2c1ccccc1` (centres unmarked) [Compound 19] reads 7.268%; that for `COc1ccc(C2CC3(CCCCC3)c3c2n(C)c2ccccc32)cc1` (centres unmarked) [Compound 20], 15.69%. With `Cc1ccc(C2CC3(CCCCC3)c3c2n(C)c2ccccc32)cc1` (centres unmarked) [Compound 21], the “Primary SP Basal_PCSK9 HepG2 SP % Inhib @ 5 μM” value in the assay on PCSK9 [1] was 12.18%. Turning to `Cn1c2c(c3ccccc31)C1(CCCCC1)CC2c1ccc2ccccc2c1` (centres unmarked) [Compound 22], the concentration for half-maximal inhibition (IC50) in the assay with PCSK9 [2] (Huh7, concentration response curve, read-out: Primary CRC PCSK9 AlphaLisa Huh7 CRC Rel IC50) is > 40 µM. Besides, the “Primary SP Basal_PCSK9 HepG2 SP % Inhib @ 5 μM” value with PCSK9 [1] is given as 77.2%. In the case of `CC1(C)c2c([nH]c3ccc(F)cc23)C2C=CC1C2` (centres unmarked) [Compound 23], the “Primary SP PCSK9 AlphaLisa Huh7 SP % Inhib @ 10 μM” value in the assay on PCSK9 [2] (Huh7) is listed as −35.06%.

As for `CC1(C)c2c([nH]c3ccc(O)cc23)C2C=CC1C2` (centres unmarked) [Compound 24], the “Primary SP Basal_PCSK9 HepG2 SP % Inhib @ 5 μM” value in the assay on PCSK9 [1] is listed as 4.997%. For the compound `CC1(C)c2c([nH]c3ccc(C(F)(F)F)cc23)C2C=CC1C2` (centres unmarked) [Compound 25], in the assay on PCSK9 [2] (Huh7), the “Primary SP PCSK9 AlphaLisa Huh7 SP % Inhib @ 10 μM” value is −334%. In the case of `Cc1ccc(C2CC(C)(C)c3c2[nH]c2ccccc32)cc1` (centres unmarked) [Compound 31], in the assay with PCSK9 [3], the “Secondary Basal_PCSK9 ELISA RPH % Inhib @ 100 μM” value is 19.03% and 22.14%. Besides, in the assay on PCSK9 [1], the “Primary SP Basal_PCSK9 HepG2 SP % Inhib @ 5 μM” value amounted to 26.2%; the “accumulation of PCSK9 in culture media” value was “significantly reduced accumulation of PCSK9 in culture media in a time-dependent and concentration-dependent manner”; the “Primary SP Basal_PCSK9 HepG2 SP % Inhib @ 50 μM” value is given as 87.5%; the IC50 came out at 4.12 µM. Besides, the “activity rating in words (PCSK9 inhibition, Table 2)” value in the assay with PCSK9 [1] is reported as “particularly strongly active”.

Regarding `c1ccc(C2CC3(CCCCC3)c3c2[nH]c2ccccc32)cc1` (centres unmarked) [Compound 32], in the assay on PCSK9 [1], the “Primary SP Basal_PCSK9 HepG2 SP % Inhib @ 5 μM” value came out at 8.8%; the “Primary SP Basal_PCSK9 HepG2 SP % Inhib @ 50 μM” value was determined as 11.9%; the “activity rating in words (PCSK9 inhibition, Table 2)” value is “weakly active”. `Cc1ccc(C2CC3(CCCCC3)c3c2[nH]c2ccccc32)cc1` (centres unmarked) [Compound 33]: the “Secondary Basal_PCSK9 ELISA RPH % Inhib @ 20 μM” value in the assay on PCSK9 [3] (20 μM) is −4.143% and 2.541% and 3.284% and −5.595%. Also, the “Secondary Basal_PCSK9 ELISA RPH % Inhib @ 100 μM” value with PCSK9 [3] was 25.95% and 29.77%. Further, in the assay on PCSK9 [1], the “Primary SP Basal_PCSK9 HepG2 SP % Inhib @ 5 μM” value is listed as 18.9%; the “accumulation of PCSK9 in culture media” value is “significantly reduced accumulation of PCSK9 in culture media in a time-dependent and concentration-dependent manner”; the “Primary SP Basal_PCSK9 HepG2 SP % Inhib @ 50 μM” value was 53.4%; half-maximal inhibition (IC50) was put at 2.12 µM. The “activity rating in words (PCSK9 inhibition, Table 2)” value with PCSK9 [1] is listed as “particularly strongly active”. As for `Cc1ccc(C2CC3(CCCCC3)c3c2[nH]c2ccc(C)cc32)cc1` (centres unmarked) [Compound 35], in the assay with PCSK9 [1], the “Primary SP Basal_PCSK9 HepG2 SP % Inhib @ 5 μM” value amounted to 26.4%; the “accumulation of PCSK9 in culture media” value was “significantly reduced accumulation of PCSK9 in culture media in a time-dependent and concentration-dependent manner”; the “Primary SP Basal_PCSK9 HepG2 SP % Inhib @ 50 μM” value came out at 90%; the half-maximal inhibitory concentration (IC50) came out at 3.14 µM. Also, the “activity rating in words (PCSK9 inhibition, Table 2)” value in the assay with PCSK9 [1] was “particularly strongly active”. In the case of `Cc1ccc(C2CC(C)(C)c3c2[nH]c2ccc(C)cc32)cc1` (centres unmarked) [Compound 36], in the assay on PCSK9 [1], the “Primary SP Basal_PCSK9 HepG2 SP % Inhib @ 5 μM” value stood at 24.5%; the “Primary SP Basal_PCSK9 HepG2 SP % Inhib @ 50 μM” value worked out at 96.5%; the midpoint of inhibition, the IC50, lay at 18.6 µM. For the compound `COC(=O)[C@@H]1CC[C@H](O)[C@@]2(C)c3ccccc3N(C)[C@@H]12` [Compound 49], the “Primary SP Basal_PCSK9 HepG2 SP % Inhib @ 50 μM” value with PCSK9 [1] is −13.7% and −22.9%.

Turning to `CC1(C)C(=O)C[C@@]2(C)c3ccccc3N(Cc3ccccc3)[C@@]12C` [Compound 53], in the assay with PCSK9 [1], the “Primary SP Basal_PCSK9 HepG2 SP % Inhib @ 50 μM” value is −20.1% and −22.3%.

`CN1c2ccccc2[C@]2(C)Cc3ccccc3N[C@H]12` [Compound 54]: the “Primary SP PCSK9 AlphaLisa Huh7 SP % Inhib @ 10 μM” value with PCSK9 [2] (Huh7) is reported as −11.97%. Same read-out and setting: the result for `C[C@@]12Cc3ccccc3N[C@@H]1N(Cc1ccccc1)c1ccccc12` [Compound 55] reads −22.6%; that for `CCC[C@@]12Cc3ccccc3N[C@@H]1N(C)c1ccccc12` [Compound 56], 32.56% and 23.45%; that for `CN1c2ccccc2[C@]2(Cc3ccccc3)Cc3ccccc3N[C@H]12` [Compound 57], 17.71%.

As for `Cc1cccc2c1N[C@@H]1N(C)c3ccccc3[C@]1(C)C2` [Compound 58], in the assay with PCSK9 [2] (Huh7), the “Primary SP PCSK9 AlphaLisa Huh7 SP % Inhib @ 10 μM” value is listed as −2.718%.

`Cc1ccc2c(c1)C[C@@]1(C)c3ccccc3N(C)[C@H]1N2` [Compound 59]: in the assay with PCSK9 [2] (10.1 μM, Huh7), the “Primary SP PCSK9 AlphaLisa Huh7 SP % Inhib @ 10.1 μM” value is on record as −5.307%. `CN1c2ccccc2[C@]2(C)Cc3cc(Cl)ccc3N[C@H]12` [Compound 60]: in the assay on PCSK9 [2] (Huh7), the “Primary SP PCSK9 AlphaLisa Huh7 SP % Inhib @ 10 μM” value worked out at 9.09%. Turning to `C=CCc1ccc2c(c1)C[C@@]1(C)c3ccccc3N(C)[C@H]1N2` [Compound 61], the “Primary SP PCSK9 AlphaLisa Huh7 SP % Inhib @ 10 μM” value in the assay with PCSK9 [2] (Huh7) was −16.91%. With `CN1c2ccc(Br)cc2[C@]2(C)Cc3ccccc3N[C@H]12` [Compound 62], the “Primary SP PCSK9 AlphaLisa Huh7 SP % Inhib @ 10 μM” value in the assay on PCSK9 [2] (Huh7) is 10.55% and 20.08%.

Broadly, the IC50 is the concentration needed to halve the response being measured.
